Assay results reported in patent US20220404341A1, “METHODS AND APPARATUS FOR MEASURING IMMUNE MEDIATED TUMOROID RESPONSES” (VITROSCAN B.V., priority 2019, published 2022).

Key:
Type in all cases: cell-based, human
[1] = test system: ovarian cancer tumoroids; test: ex vivo 3D patient derived tumour culture with 3D imaging, ovarian cancer samples; conditions: for area size of small objects: FIG. 5 (same sample as FIG. 4)
[2] = test system: patient derived tumour cultures; test: Selection Factor (tumoroids' area decrease) across patient samples; conditions: for immune reaction reducing the number of tumour cells (Selection Factor metric across samples): FIGS. 8 and 9, alone or in combination, naïve patient sample; for Tumoroids' area decrease (%) as Selection Factor, effect when used alone: experiments shown in FIG. 8
[3] = test system: Mesothelioma tumour sample; test: ex vivo 3D patient derived tumour culture with 3D imaging, mesothelioma sample; conditions: FIG. 3
[4] = test system: IFN-γ; test: IFN-γ production in treated patient derived tumour cultures; conditions: FIG. 7; IFN-γ is secreted by activated T-cells
[5] = test system: lung tumour sample; test: ex vivo 3D patient derived tumour culture with 3D imaging, lung tumour sample; conditions: FIG. 6

Compound: Nc1ncnc2c1ncn2[C@@H]1O[C@@H]2COP(=O)([S-])O[C@@H]3[C@H](O)[C@@H](COP([O-])(=S)O[C@H]2[C@H]1O)O[C@H]3n1cnc2c(N)ncnc21.[Na+].[Na+] (stereo partly shown) [ADU-S100]
- area size of small objects ([1]; ovarian tumour sample): area size increase of small objects

Compound: O=C(c1cc(Cc2n[nH]c(=O)c3ccccc23)ccc1F)N1CCN(C(=O)C2CC2)CC1 [olaparib]
- immune reaction reducing the number of tumour cells (Selection Factor metric across samples) [2]: able to start an immune reaction that effectively reduced the number of tumour cells

Compound: ipilimumab
- activating native immune cells to kill tumoroids (total area of objects larger than 422 μm^2 and of objects smaller than 160 μm^2) ([1]; ovarian cancer samples of FIG. 1, one-sided Wilcoxon test): effective in activating native immune cells to kill ovarian cancer tumoroids
- activating native immune cells to kill tumoroids ([1]; ovarian cancer samples of FIG. 2): does not show effectiveness in activating native immune cells to kill tumoroids
- immune reaction reducing the number of tumour cells (Selection Factor metric across samples) [2]: able to start an immune reaction that effectively reduced the number of tumour cells
- immune-mediated tumoroid killing effect [3]: immune-mediated tumoroid killing effect
- IFN-γ production [4]: increased
- immune-mediated tumoroid killing effect [5]: immune-mediated tumoroid killing effect

Compound: nivolumab
- immune reaction reducing the number of tumour cells (Selection Factor metric across samples) [2]: able to start an immune reaction that effectively reduced the number of tumour cells
- Tumoroids' area decrease (%) as Selection Factor, effect when used alone [2]: do not show any effect when used alone
- immune-mediated tumoroid killing effect [5]: immune-mediated tumoroid killing effect

Compound: pembrolizumab
- immune-mediated tumoroid killing effect (area size reduction of tumoroid clusters) ([1]; ovarian tumour sample, FIG. 4): immune-mediated tumoroid killing effect
- area size of small objects ([1]; ovarian tumour sample): area size increase of small objects
- immune reaction reducing the number of tumour cells (Selection Factor metric across samples) [2]: able to start an immune reaction that effectively reduced the number of tumour cells
- Tumoroids' area decrease (%) as Selection Factor, effect when used alone [2]: do not show any effect when used alone
- immune-mediated tumoroid killing effect [5]: immune-mediated tumoroid killing effect
